According to patent US20260297042A1, “BIARYLAMIDE DERIVATIVES AND THEIR USE AS PKMYT1 INHIBITORS” (CANCER RESEARCH TECHNOLOGY LIMITED, priority 2023, published 2026):

How the values were obtained:
[1] = target: T1, Human PKMYT1 (Homo sapiens, UniProt Q99640); assay: PKMYT1 biochemical ADP-Glo enzymatic assay; details: PKMYT1 kinase domain 15 nM; ADP-Glo; banded values
T1 construct: Human PKMYT1 75-362 was cloned as a TEV cleavable 6xHis fusion; 6xHis (TEV cleavable) (cleaved yes); made in house; host or cells: bacterial cells
T1 sequence (Q99640 75-362): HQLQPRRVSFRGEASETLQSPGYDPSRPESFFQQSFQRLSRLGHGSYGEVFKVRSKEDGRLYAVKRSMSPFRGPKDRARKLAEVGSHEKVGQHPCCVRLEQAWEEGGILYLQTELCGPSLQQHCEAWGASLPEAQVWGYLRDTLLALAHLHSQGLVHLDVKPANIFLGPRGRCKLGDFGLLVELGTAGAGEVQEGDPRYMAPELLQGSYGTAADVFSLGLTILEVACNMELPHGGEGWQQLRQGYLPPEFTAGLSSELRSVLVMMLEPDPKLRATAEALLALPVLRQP
Outline: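 Measures inhibition of PKMYT1 autonomous ATP hydrolysis: bacterially expressed human enzyme (75-362, tag cleaved) at 15 nM with 500 µM ATP for 60 min at 26 °C, then ADP-Glo Max detection. IC50s accepted only when replicates agreed within 3-fold and curve r2 exceeded 0.9.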

[2] = target: T2, WEE1 (Homo sapiens, UniProt P30291); assay: Selectivity versus WEE1 assay (ADP-Glo enzymatic assay); assay type: biochemical; details: for IC50: WEE1 15 nM, ADP-Glo, banded values; for PKMYT1 vs. WEE1 selectivity: fold difference in selectivity for PKMYT1 over WEE1, banded
T2 construct: purchased Thermo Fisher PR7373A
T2 sequence (P30291 whole entry): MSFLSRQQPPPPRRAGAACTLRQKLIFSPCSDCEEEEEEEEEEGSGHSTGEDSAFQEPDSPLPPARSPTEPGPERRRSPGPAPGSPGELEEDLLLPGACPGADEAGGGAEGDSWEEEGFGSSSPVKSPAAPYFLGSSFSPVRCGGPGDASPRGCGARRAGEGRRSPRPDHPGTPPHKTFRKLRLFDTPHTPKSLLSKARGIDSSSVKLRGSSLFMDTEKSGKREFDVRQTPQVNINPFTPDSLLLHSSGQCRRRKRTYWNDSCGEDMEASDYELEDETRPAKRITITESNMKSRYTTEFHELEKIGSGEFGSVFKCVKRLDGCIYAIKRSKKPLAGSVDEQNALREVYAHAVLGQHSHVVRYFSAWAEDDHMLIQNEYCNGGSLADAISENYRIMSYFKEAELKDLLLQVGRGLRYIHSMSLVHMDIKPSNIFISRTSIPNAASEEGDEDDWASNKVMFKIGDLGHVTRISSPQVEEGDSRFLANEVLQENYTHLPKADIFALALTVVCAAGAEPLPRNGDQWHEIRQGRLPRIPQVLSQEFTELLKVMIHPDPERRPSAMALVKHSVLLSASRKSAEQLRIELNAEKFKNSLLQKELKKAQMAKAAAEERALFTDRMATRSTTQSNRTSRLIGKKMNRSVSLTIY
Outline: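 Same format as the PKMYT1 assay: WEE1 at 15 nM final with 30 µM ATP, 60 min at 26° C, ADP-Glo luminescence detection, IC50 by dose-response fitting.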

| Compound | IC50 [1] [µM] | IC50 [2] [µM] | PKMYT1 vs. WEE1 selectivity [2] |
| --- | --- | --- | --- |
| Cc1ccc(O)c(C)c1NC(=O)c1nnc(Nc2ccn(C)n2)s1 [BAA-463, N-(3-Hydroxy-2,6-dimethylphenyl)-5-((1-methyl-1H-pyrazol-3-yl)amino)-1,3,4-thiadiazole-2-carboxamide] | 0.05 to 1 | > 11 | X (100-<1000 fold) |
| Cc1ccc(O)c(C)c1NC(=O)c1nnc(Nc2ccn(C3CCC3)n2)s1 [BAA-466, 5-((1-cyclobutyl-1H-pyrazol-3-yl)amino)-N-(3-hydroxy-2,6-dimethylphenyl)-1,3,4-thiadiazole-2-carboxamide] | 0.05 to 1 | > 11 | Y (1000-5000 fold) |
| CCc1c(O)ccc(C)c1NC(=O)c1cnc(Nc2ccn(C)n2)s1 [BAA-469, N-(2-Ethyl-3-hydroxy-6-methylphenyl)-2-((1-methyl-1H-pyrazol-3-yl)amino)thiazole-5-carboxamide] | 0.05 to 1 | > 11 | X (100-<1000 fold) |
| Cc1c(O)ccc(Cl)c1NC(=O)c1cnc(Nc2ccn(C)n2)s1 [BAA-474, N-(6-Chloro-3-hydroxy-2-methyl-phenyl)-2-[(1-methylpyrazol-3-yl)amino]thiazole-5-carboxamide] | 0.05 to 1 | > 11 | X (100-<1000 fold) |
| Cn1ccc(Nc2ncc(C(=O)Nc3c(Cl)ccc(O)c3F)s2)n1 [BAA-479, N-(6-Chloro-2-fluoro-3-hydroxyphenyl)-2-((1-methyl-1H-pyrazol-3-yl)amino)thiazole-5-carboxamide] | 0.05 to 1 | > 11 | W (10-<100 fold) |

Further lines, results first:

| IC50 [1] [µM] | IC50 [2] [µM] | PKMYT1 vs. WEE1 selectivity [2] | Compound |
| --- | --- | --- | --- |
| < 0.05 | 1 to 11 | X (100-<1000 fold) | Cc1ccc(O)c(C)c1NC(=O)c1cnc(Nc2cccc(C3=NCCO3)c2)s1 [BAA-461, 2-((3-(4,5-dihydrooxazol-2-yl)phenyl)amino)-N-(3-hydroxy-2,6-dimethylphenyl)thiazole-5-carboxamide] |
| 0.05 to 1 | > 11 | X (100-<1000 fold) | Cc1ccc(O)c(C)c1NC(=O)c1cnc(Nc2ccn(C)n2)o1 [BAA-462, N-(3-Hydroxy-2,6-dimethylphenyl)-2-((1-methyl-1H-pyrazol-3-yl)amino) oxazole-5-carboxamide] |
| < 0.05 | > 11 | Y (1000-5000 fold) | Cc1cn(C)nc1Nc1nnc(C(=O)Nc2c(C)ccc(O)c2C)s1 [BAA-465, 5-((1,4-dimethyl-1H-pyrazol-3-yl)amino)-N-(3-hydroxy-2,6-dimethylphenyl)-1,3,4-thiadiazole-2-carboxamide] |
| < 0.05 | 1 to 11 | X (100-<1000 fold) | Cc1ccc(O)c(Br)c1NC(=O)c1cnc(Nc2ccn(C)n2)s1 [BAA-468, N-(2-bromo-3-hydroxy-6-methyl-phenyl)-2-[(1-methylpyrazol-3-yl)amino]thiazole-5-carboxamide] |
| < 0.05 | > 11 | X (100-<1000 fold) | Cn1cc(Br)c(Nc2ncc(C(=O)Nc3c(F)ccc(O)c3Cl)s2)n1 [BAA-472, 2-((4-Bromo-1-methyl-1H-pyrazol-3-yl)amino)-N-(2-chloro-6-fluoro-3-hydroxyphenyl)thiazole-5-carboxamide] |
| < 0.05 | > 11 | Y (1000-5000 fold) | CCc1c(O)ccc(C)c1NC(=O)c1cnc(Nc2ccn(CC(=O)N3CCCC3)n2)s1 [BAA-475, N-(2-ethyl-3-hydroxy-6-methylphenyl)-2-((1-(2-oxo-2-(pyrrolidin-1-yl)ethyl)-1H-pyrazol-3-yl)amino) thiazole-5-carboxamide] |
| < 0.05 | 1 to 11 | X (100-<1000 fold) | Cc1ccc(O)c(Br)c1NC(=O)c1cnc(Nc2ccn(CC(=O)N3CCCC3)n2)s1 [BAA-476] |
